Laboratory results published in patent US6469067B1, “Combinations” (Novartis AG, priority 1999, dated 2002).

System: Dermanyssus gallinae
Assay: In vitro effect on Dermanyssus gallinae
Details: single component; for activity in terms of preventing oviposition, component alone: at 0.32 and 10 ppm
Experimental: For the sake of simplicity, the chicken mite Dermanyssus gallinae is used. This is a good model for determining the effect on ticks.
In vitro Effect on Dermanyssus gallinae
The test is carried out with serial dilutions [avermectin component in concentrations of (32), 10, 3.2, 1.0, 0.32 to 0.0001 ppm; the 1-[4-chloro-3-(3-chlor-5-trifluoromethyl-2-pyridyloxy)phenyl]-3-(2,6-difluorobenzoyl)urea in concentrations of 100, 32, 10, 3.2, 1.0, 0.32 and 0.1 ppm]. For the test, the lowest concentration of one active substance is combined with the lowest concentration of the other active substance, and the limits of activity thus worked out. Ten fully engorged female mites of the genus Dermanyssus gallinae adhered to a plastic adhesive film are brought into contact with 50 μl of an aqueous suspension or emulsion of the test combination in question. After drying, the film is stuck onto a glass disc. This creates a kind of air bubble around each mite, the lower surface of which is formed by the glass disc and the upper surface by a bulging of the adhesive film. This bubble contains sufficient air for the mite to avoid suffocating. After 5 days, the effect of the test substance is evaluated with the aid of a stereomicroscope by assessing the effect on mortality, oviposition, egg quality, hatching rate, pupation rate, and development of protonymphs according to the following 4 criteria:
1) if 9 to 10 mites are dead, this indicates a lethal effect (characterised by M);
3) if 2 or more mites survive and produce eggs, but no larvae hatch from these eggs and no protonymphs develop, this indicates a development-inhibiting effect (H);
4)if 2 or more mites survive and lay the usual number of normal eggs, from which larvae hatch and develop into protonymphs, this indicates no activity (−).
In each test, two basic suspensions/emulsions (without active ingredient) and one suspension/emulsion with only one of each component are also tested in the corresponding concentrations.
The test is repeated three times with the following combinations and the results determined. The final result is given in Tables 1 to 3, whereby in the tables marked with a the combinations from the prior art are listed and in the tables marked with b the results of the combinations according to the invention are listed.

Row | Molecule | activity in terms of preventing oviposition, component alone | further results
1 | O=C(NC(=O)c1c(F)cccc1F)Nc1ccc(Cl)c(Oc2ncc(C(F)(F)F)cc2Cl)c1 [B, 1-[4-chloro-3-(3-chloro-5-trifluoromethyl-2-pyridyloxy)phenyl]-3-(2,6-difluorobenzoyl)urea] | – | concentration up to which oviposition is prevented, component alone: 0.01 ppm
2 | O=C(NC(=O)c1c(F)cccc1F)Nc1cc(Cl)c(Oc2ncc(C(F)(F)F)cc2Cl)c(Cl)c1 [A, chlorfluazuron] | – | activity against Dermanyssus gallinae, component alone (all tested concentrations): no activity at any concentration
3 | CO/N=C1\C[C@]2(C[C@@H]3C[C@@H](C/C=C(\C)C[C@@H](C)/C=C/C=C4\CO[C@@H]5[C@H](O)C(C)=C[C@@H](C(=O)O3)[C@]45O)O2)O[C@H](/C(C)=C/C(C)C)[C@H]1C [Moxidectin] | full activity | –
4 | Ivermectin | full activity | –
5 | CO[C@H]1C[C@H](O[C@H]2[C@H](C)O[C@@H](O[C@@H]3/C(C)=C/C[C@@H]4C[C@@H](C[C@]5(C=C[C@H](C)[C@@H](C6CCCCC6)O5)O4)OC(=O)[C@@H]4C=C(C)[C@@H](O)[C@H]5OC/C(=C\C=C\[C@@H]3C)[C@]54O)C[C@@H]2OC)O[C@@H](C)[C@@H]1O [Doramectin] | full activity | –
